Read-outs that look alike come from different tables or passages of the source.
Experiments:
OsSRT1 [1] = target: T1, OsSRT1 (Oryza sativa, UniProt B8ARK7); test: auto-ADP-ribosylation, anti-biotin dot blot, Michaelis-Menten fit; format: biochemical; settings: 6 nM OsSRT1, 0-100 µM Bio-NAD+, pH 7.5, 25°C; auto-ADPr without H3; labelled compound
T1 construct: gene SRT1; OsSRT1 gene (483 aa) in pET30a (BamHI/EcoRI), His-tagged, E. coli BL21(DE3), HisTrap purified; tag removal not mentioned
T1 sequence (B8ARK7 1-483): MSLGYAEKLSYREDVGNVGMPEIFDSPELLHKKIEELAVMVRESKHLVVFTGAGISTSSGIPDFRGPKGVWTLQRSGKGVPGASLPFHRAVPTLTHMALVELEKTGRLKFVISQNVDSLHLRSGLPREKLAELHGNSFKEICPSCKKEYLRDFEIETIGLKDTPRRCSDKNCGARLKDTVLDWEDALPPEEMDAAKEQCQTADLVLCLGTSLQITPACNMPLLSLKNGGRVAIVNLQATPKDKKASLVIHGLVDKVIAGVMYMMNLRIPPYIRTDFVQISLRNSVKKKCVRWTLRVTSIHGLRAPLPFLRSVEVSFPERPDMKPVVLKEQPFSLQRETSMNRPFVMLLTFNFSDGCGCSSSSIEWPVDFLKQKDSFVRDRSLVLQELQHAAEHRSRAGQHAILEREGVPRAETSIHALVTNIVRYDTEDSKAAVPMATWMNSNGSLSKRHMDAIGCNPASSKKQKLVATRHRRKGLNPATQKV

OsSRT1 [2] = target: T1, OsSRT1; test: auto-ADP-ribosylation, anti-biotin western blot; format: biochemical

Row | Compound | IC50 (OsSRT1 [2]) [µM] | also measured
1 | Bio-NAD^+ |  | Km (OsSRT1 [1]): 37.4 ± 4 µM
2 | O=C(O)c1cccnc1 [nicotinic acid] | 32 ± 4 | 
3 | Nc1ncnc2c1ncn2[C@@H]1O[C@H](COP(=O)(O)OP(=O)(O)OC[C@H]2OC(O)[C@H](O)[C@@H]2O)[C@@H](O)[C@H]1O (stereo partly shown) [ADP-ribose] |  | IC50 (OsSRT1 [2]; auto-ADPr with Bio-NAD+, standard buffer 50 mM Tris pH 7.5, 150 mM NaCl, 10 mM DTT, 75 μM NAD+, 40 μM Bio-NAD+, 25°C, 1 h, product inhibition): 18 ± 4 µM
4 | NC(=O)c1cccnc1 [nicotinamide] | 26 ± 2 | 
